Tests used:
[1] = target: T1, human serotonin 5-HT2A receptor (Homo sapiens, UniProt P28223); assay type: cell-based
T1 construct: host or cells: CHO-K1
Experimental: Tested and reference compounds were dissolved in dimethyl sulfoxide (DMSO) at a concentration of 10 mM. Serial dilutions were prepared in a 96-well microplate in assay buffer, and 8 to 10 concentrations were tested. […] The assay was executed according to the previously described protocol [45]. After thawing, cells were transferred to assay buffer (DMEM/HAM’s F12 with 0.1% protease-free BSA) and centrifuged. The cell pellet was resuspended in assay buffer, and coelenterazine h was added at final concentrations of 5 µM. The cell suspension was incubated at 16 °C (or 21 °C), protected from light with constant agitation for 16 h (or 4 h), and then diluted with assay buffer to the concentration of 100,000 cells/mL (or 250,000 cells/mL). After 1 h of incubation, 50 µL of the cell’s suspension was dispensed using automatic injectors built into the radiometric and luminescence plate counter MicroBeta2 LumiJET (PerkinElmer, Waltham, NA, USA) into white opaque 96-well microplates preloaded with test compounds. Immediate light emission generated following calcium mobilization was recorded for 30 s. In antagonist mode, after 25–30 min of incubation, the reference agonist was added to the above assay mix, and light emission was re-recorded. […] IC50 and EC50 values were calculated.

[2] = tested on: mice; assay: Amphetamine-induced hyperlocomotion test in mice; assay type: in vivo; conditions: doses 0.3–2.5 mg/kg ip, amphetamine 2.5 mg/kg sc
Experimental: Locomotor activity was recorded in actometers separately for each mouse. After 30 min of adaptation, the number of crossings of photo beams was measured during 60 min. […] MK-801 (0.2 mg/kg, ip) was administered 15 min before the experiment, while amphetamine (2.5 mg/kg) was administered subcutaneously (sc) 30 min before the experiment. […] Values are expressed as means ± SD, n = 8–10 mice per group. Statistical analysis: one-way ANOVA (Newman–Keuls post hoc), * p < 0.05, ** p < 0.01, *** p < 0.001.
The test was performed according to the method described by Carlsson et al.. The mobility of the animals was measured in actometers, i.e., in plastic Opto M3 cages (22 × 12 × 13 cm) connected to a computer with MultiDevice Software v.1.30 (Columbus Instruments, Columbus, OH, USA). The experimental cages were equipped with infrared sources on one side and sensors receiving the emitted rays on the other side of the cage. The crossing of each beam of infrared rays was classified as motor activity. The animals were placed individually in experimental cages immediately after administration of the tested compound, 30 min before the start of the test, to adapt to the new conditions and exclude the occurrence of hyperactivity caused by the change of the environment. Spontaneous locomotor activity was measured every 5 min for 60 min. Mice received two injections: of the tested compound or reference substance (30 min before the test, ip) and of amphetamine (2.5 mg/kg, 30 min before the test, sc) or MK-801 (0.2 mg/kg, 15 min before the test, ip). Control groups received an injection of saline and amphetamine or MK-801, or two injections of saline, respectively. Olanzapine was used as a reference compound.

[3] = tested on: mice; assay: Catalepsy bar test in mice; assay type: in vivo
Experimental: Catalepsy was assessed using the bar method described by Ueki et al. with minor modifications [48, 49]. The front paws of the mice were placed on a cylindrical metal bar located 4 cm above the tabletop’s surface, while the hind paws remained on the tabletop. The time in which the animal held both paws on the bar was measured at 30, 60, and 120 min after the administration of the tested compound, with a maximum measurement time of 60 s. Each of the measurements consisted of placing the animal’s paws on the bar three times unless the mouse was on it for 60 s; then, no further trial was performed.
The minimum cataleptogenic dose was defined as the lowest dose inducing a mean catalepsy score of ≥1 at 30, 60, or 120 min post-treatment. The tested compound was administered ip at the dose range of 5–20 mg/kg.

[4] = tested on: mice; assay: Four-plate test in mice; assay type: in vivo
Experimental: Figure 2 The effect of JJGW08 on the number of punished crossings in the four-plate test. Mice were placed in the apparatus, and after a 15 s adaptation period, each mouse crossing from one plate to another was punished with an electric shock. JJGW08 was administered intraperitoneally (ip) 30 min before the test. The control group received 0.9% NaCl solution (ip). Values are expressed as means ± SD, n = 8–10 mice per group. Statistical analysis: one-way ANOVA (Newman–Keuls post hoc), ** p < 0.01.
The four-plate test was performed on mice according to the previously described method. Mice were placed individually in the four-plate apparatus (Panlab, Barcelona, Spain). After a 15 s habituation period, each mouse that crossed from one plate to another (two limbs on one plate, two on another) was punished by an electric shock (0.8 mA, 0.5 s). The number of punished crossings was calculated during the 60 s of the test.

[5] = tested on: rats; assay: Open field test after MK-801 administration in rats (MK-801-induced hyperlocomotion); assay type: in vivo; conditions: doses 1–30 mg/kg ip, MK-801 0.3 mg/kg ip
Experimental: Figure 4 The effect of JJGW08 and clozapine on MK-801-induced hyperlocomotion in rats. After the habituation period (30 min, 24 h before the test), locomotor activity was measured individually for each animal in the special apparatus. The walked distance (cm) was monitored at 10-min intervals for 30 min, using a computerized system that tracked the animals’ movement and behavior. JJGW08 and clozapine were administered intraperitoneally (ip) 30 or 60 min before the test, respectively, while MK-801 (0.3 mg/kg) was administered ip 15 min before the start of the experiment. The control group received 0.9% NaCl solution (ip) (or 1% Tween (ip) for clozapine) and MK-801 (0.3 mg/kg, ip). Values are expressed as mean ± SD, n = 7–8 rats per group. Statistical analysis: one-way ANOVA (Newman–Keuls post hoc) * p < 0.05, ** p < 0.01, *** p < 0.001.
The experiment was evaluated according to the method described earlier. It was performed in a soundproof chamber with a 30-min habituation period 24 h before the procedure. The open field apparatus consisted of four black, octagonal, stainless steel arenas (diameter: 80 cm) with 30 cm high walls. Each arena was divided into a peripheral and central sector. The peripheral sector was defined as the region within 20 cm from the walls. The approximate light intensity was 15 lx in the central point of the arena and 4 lx close to its walls.
Individual rats were placed in the central part of the open field and allowed to explore the whole arena for 30 min under dim light (approximately 10 lx) and continuous white noise (65 dB). Forward locomotion (cm/30 min) was registered in 10-min intervals for 30 min and analyzed with the aid of a computerized video tracking system (Videomot, TSE, Bad Homburg, Germany). The arenas were cleaned between tests with 20% (v/v) alcohol and allowed to dry.
The tested compound was administered ip 30 min before the experiment at the dose range of 0.3–30.0 mg/kg, and MK-801 (0.3 mg/kg,) was administered ip 15 min before the procedure. […]

[6] = target: human serotonin 5-HT7 receptor (Homo sapiens, UniProt P34969); assay: Functional assay (cAMP, TR-FRET) in CHO-K1 cells, 5-HT7 receptor
human serotonin 5-HT7 receptor, sequence (P34969 whole entry): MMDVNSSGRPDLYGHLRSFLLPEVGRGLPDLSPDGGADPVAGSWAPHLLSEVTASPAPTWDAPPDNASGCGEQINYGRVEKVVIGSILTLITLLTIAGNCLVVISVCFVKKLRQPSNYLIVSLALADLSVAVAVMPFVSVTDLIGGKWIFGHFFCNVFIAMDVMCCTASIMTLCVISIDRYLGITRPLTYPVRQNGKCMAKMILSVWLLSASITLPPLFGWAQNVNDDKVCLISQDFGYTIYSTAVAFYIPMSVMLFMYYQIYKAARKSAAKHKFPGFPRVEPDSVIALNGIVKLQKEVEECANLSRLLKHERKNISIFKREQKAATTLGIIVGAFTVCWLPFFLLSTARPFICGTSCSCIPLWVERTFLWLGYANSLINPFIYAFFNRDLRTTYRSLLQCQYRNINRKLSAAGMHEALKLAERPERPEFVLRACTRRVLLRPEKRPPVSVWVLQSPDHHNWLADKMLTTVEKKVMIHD
Experimental: Test and reference compounds were dissolved in DMSO at a concentration of 1 mM. Serial dilutions were prepared in a 96-well microplate in assay buffer, and 8 to 10 concentrations were tested. […] A functional assay based on cells expressing the human 5-HT7 receptor was performed according to the previously described protocol [16, 45]. CHO-K1 cells were transfected with a beta-lactamase (bla) reporter gene under the control of the cyclic AMP response element (CRE) (Life Technologies, Carlsbad, CA, USA).

[7] = 5-HT7, antagonist mode, 10 nM serotonin as reference agonist

T1 sequence (P28223 whole entry): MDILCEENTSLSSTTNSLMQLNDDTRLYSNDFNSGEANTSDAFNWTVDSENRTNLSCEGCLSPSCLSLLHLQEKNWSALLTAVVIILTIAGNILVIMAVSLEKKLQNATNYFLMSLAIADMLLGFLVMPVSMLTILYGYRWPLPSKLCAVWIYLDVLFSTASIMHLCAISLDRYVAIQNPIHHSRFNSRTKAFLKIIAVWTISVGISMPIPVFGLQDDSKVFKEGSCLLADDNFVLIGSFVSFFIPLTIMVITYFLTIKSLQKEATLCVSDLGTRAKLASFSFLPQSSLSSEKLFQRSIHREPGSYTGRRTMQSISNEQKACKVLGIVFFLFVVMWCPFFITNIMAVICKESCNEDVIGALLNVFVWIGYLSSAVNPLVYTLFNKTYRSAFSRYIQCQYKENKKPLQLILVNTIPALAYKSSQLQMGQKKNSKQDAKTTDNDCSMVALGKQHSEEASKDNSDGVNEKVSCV

**Q.** What does the source list for `COc1ccccc1N1CCN(CCCCCOc2ccccc2C(N)=O)CC1.Cl` [JJGW08, 2-{5-[4-(2-metoksyfenylo)piperazin-1-ylo]pentoxy}benzamide hydrochloride]?
**A.** Agonist Mode Emax% [1]: 21%; Agonist Mode pEC50 ± Range [1]: 5.9 ± 0.1; Antagonist Mode Emax% [1]: 5%; Antagonist Mode pIC50 ± Range [1]: 5.7 ± 0.4; antagonistic properties (in words) [1]: very weak antagonistic properties; Kb ([1]; read-out: Antagonist Mode Kb): 290 nM; reduction of amphetamine-induced hyperlocomotion [2]: 52–82%; Mean Score (catalepsy) ([3]; 5 mg/kg ip, 30 min): 0.0; Mean Score (catalepsy) ([3]; 5 mg/kg ip, 60 min): 0.2; Mean Score (catalepsy) ([3]; 5 mg/kg ip, 120 min): 0.2; Mean Score (catalepsy) ([3]; 10 mg/kg ip, 30 min): 0.7; Mean Score (catalepsy) ([3]; 10 mg/kg ip, 60 min): 0.9; Mean Score (catalepsy) ([3]; 10 mg/kg ip, 120 min): 1.4; cataleptogenic dose relative to the lowest antipsychotic-like dose ([3]; 10 mg/kg vs. 0.15 mg/kg): 67 fold; Mean Score (catalepsy) ([3]; 20 mg/kg ip, 30 min): 2.1; Mean Score (catalepsy) ([3]; 20 mg/kg ip, 60 min): 2.1; Mean Score (catalepsy) ([3]; 20 mg/kg ip, 120 min): 1.5; minimum (lowest) cataleptogenic dose ([3]; ip, lowest dose with mean catalepsy score ≥1 at 30, 60 or 120 min): 10 mg/kg; increase in the number of punished crossings ([4]; 0.3 mg/kg ip): 54%; increase in the number of punished crossings ([4]; 0.625 mg/kg ip): 49%; reduction of MK-801-induced hyperlocomotion in the open field [5]: 36–82%; Agonist Mode Emax% ([6]; 5-HT7, agonist mode): 1%; Antagonist Mode Emax% [6, 7]: 4%; Antagonist Mode pIC50 ± Range [6, 7]: 6.4 ± 0.1; antagonistic properties (in words) ([6]; 5-HT7 functional assay): very weak antagonistic properties; Kb ([6]; read-out: Antagonist Mode Kb, 5-HT7, antagonist mode, Cheng equation): 190 nM

Reference: article PMC9781916, “Antipsychotic- and Anxiolytic-like Properties of a Multimodal Compound JJGW08 in Rodents” (International Journal of Molecular Sciences, 2022)
